According to ChEMBL document CHEMBL3352406, “Optimized protein kinase Cθ (PKCθ) inhibitors reveal only modest anti-inflammatory efficacy in a rodent model of arthritis” (J Med Chem, 2015):

Assays:
[1] = Unbound intrinsic clearance in human microsomes; format: ADME, Microsome
[2] = Permeability from apical to basolateral side in MDCK2-MDR1 cells at pH 7.4; format: ADME, cell-based, Canis lupus familiaris, MDCK-II; conditions: dog, MDCK-MDR1, pH 7.4; read-out: permeability
[3] = Inhibition of anti-CD3/anti-CD28 antibody-induced IL2 production in human T-Blast cells after 24 hrs; format: functional, cell-based
[4] = Unbound intrinsic clearance in mouse microsomes; format: ADME, Microsome
[5] = tested on: Mus musculus; assay: fCmax in mouse at 3 mg/kg, iv or 10 mg/kg, po; format: ADME, organism-based; conditions: in vivo
[6] = tested on: Mus musculus; assay: fAUC in mouse at 3 mg/kg, iv or 10 mg/kg, po; format: ADME, organism-based; conditions: in vivo
[7] = (§1) Half life in mouse at 3 mg/kg, iv or 10 mg/kg, po; format: ADME, organism-based; conditions: in vivo
[8] = tested on: Mus musculus; assay: Unbound clearance in mouse at 3 mg/kg, iv or 10 mg/kg, po; format: ADME, organism-based; conditions: in vivo
[9] = (§2) Plasma clearance in mouse at 3 mg/kg, iv or 10 mg/kg, po; format: ADME, organism-based; conditions: plasma
[10] = (§3) Oral bioavailability in mouse at 10 mg/kg; format: ADME, organism-based; conditions: in vivo
[11] = tested on: Mus musculus; assay: fAUC in mouse assessed as desmethyl metabolite level at 3 mg/kg, iv or 10 mg/kg, po; format: ADME, organism-based; conditions: in vivo
[12] = tested on: Mus musculus; assay: fAUC in mouse at 1 mg/kg, iv or 10 mg/kg, po; format: ADME, organism-based; conditions: in vivo
[13] = tested on: Mus musculus; assay: Unbound clearance in mouse at 1 mg/kg, iv or 10 mg/kg, po; format: ADME, organism-based; conditions: in vivo
[14] = tested on: Mus musculus; assay: as §1; format: ADME, organism-based; conditions: in vivo
[15] = Half life in mouse at 1 mg/kg, iv or 10 mg/kg, po; format: ADME, organism-based; conditions: in vivo
[16] = tested on: Mus musculus; assay: as §2; format: ADME, organism-based; conditions: in vivo
[17] = Plasma clearance in mouse at 1 mg/kg, iv or 10 mg/kg, po; format: ADME, organism-based
[18] = tested on: Mus musculus; assay: as §3; format: ADME, organism-based; conditions: in vivo
[19] = tested on: Mus musculus; assay: fAUC in mouse assessed as desmethyl metabolite level at 1 mg/kg, iv or 10 mg/kg, po; format: ADME, organism-based; conditions: in vivo
[20] = tested on: Mus musculus; assay: fCmax in mouse at 1 mg/kg, iv or 10 mg/kg, po; format: ADME, organism-based; conditions: in vivo
[21] = species: Mus musculus; assay: animal or person; conditions: Balb/c, po, read-out: INH

Row | SMILES | CL free [1] | Papp A→B [2] | CL free [4] | fCmax [5] | fAUC [6] | half-life [7] | CL free [8] | clearance [9] | bioavailability [10] | other results
1 | C[C@@H]1C(=O)NN=C2COc3cc(C(F)(F)F)c(NC4(C)CN(C)C4)cc3N21 | – | 19 ×10⁻⁶ cm/s | – | – | – | – | – | – | – | –
2 | C[C@@H]1C(=O)NN=C2COc3cc(C(F)(F)F)c(N(C)C4(C)CN(C)C4)cc3N21 | 100 mL/min/kg | – | 650 mL/min/kg | – | – | – | – | – | – | –
3 | CC1C(=O)NN=C2COc3cc(-c4ccccc4)c(NC4(C)CN(C)C4)cc3N21 (stereo not drawn) | 83 mL/min/kg | 24 ×10⁻⁶ cm/s | 283 mL/min/kg | – | – | – | – | – | – | –
4 | C[C@@H]1C(=O)NN=C2COc3cc(-c4ccccc4)c(N(C)C4(C)CN(C)C4)cc3N21 | 250 mL/min/kg | 15 ×10⁻⁶ cm/s | 1130 mL/min/kg | 14.5 ng/mL | 37.3 ng·h/mL | 1 h | 1180 mL/min/kg | 100 mL/min/kg | 26% | –
5 | C[C@@H]1C(=O)NN=C2COc3cc(-c4ccccc4F)c(N(C)C4(C)CN(C)C4)cc3N21 | 300 mL/min/kg | 15 ×10⁻⁶ cm/s | 2230 mL/min/kg | 27.3 ng/mL | 102 ng·h/mL | 1.6 h | 550 mL/min/kg | 51.7 mL/min/kg | 28% | fAUC [11]: 83.2 ng·h/mL
6 | C[C@@H]1C(=O)NN=C2COc3cc(-c4ccccc4F)c([C@@H]4CCN(C)C4)cc3N21 | 103 mL/min/kg | – | – | ND(toxic) | ND(toxic) | – | ND(toxic) | – | 110% | fAUC [11]: ND(toxic); fAUC [12]: 920 ng·h/mL; CL free [13]: 317 mL/min/kg; t1/2 [14]: ND(toxic); half-life [15]: 4.3 h; CL [16]: ND(toxic); clearance [17]: 35 mL/min/kg; F [18]: ND(toxic); fAUC [19]: 111 ng·h/mL; fCmax [20]: 112 ng/mL

Further lines, with some results ahead:

Row | CL free [1] | Papp A→B [2] | CL free [4] | fCmax [5] | fAUC [6] | half-life [7] | CL free [8] | clearance [9] | bioavailability [10] | SMILES | other results
7 | < 33 mL/min/kg | 2.1 ×10⁻⁶ cm/s | < 95 mL/min/kg | – | – | – | – | – | – | C[C@@H]1C(=O)NN=C2COc3cc(C(F)(F)F)c(NC4(C)CNC4)cc3N21 | IC50 [3]: 120 nM
8 | 107 mL/min/kg | – | 767 mL/min/kg | – | – | – | – | – | – | C[C@@H]1C(=O)NN=C2COc3cc(C(F)(F)F)c(N(C)C4(C)CNC4)cc3N21 | –
9 | 267 mL/min/kg | – | 3570 mL/min/kg | 36.7 ng/mL | 132 ng·h/mL | 3.6 h | 367 mL/min/kg | 58.3 mL/min/kg | 29% | C[C@@H]1C(=O)NN=C2COc3cc(-c4ccccc4F)c([C@@H](C)C4(C)CN(C)C4)cc3N21 | –
10 | 107 mL/min/kg | – | 500 mL/min/kg | 39.9 ng/mL | 120 ng·h/mL | 7.5 h | 500 mL/min/kg | 70 mL/min/kg | 33% | C[C@@H]1C(=O)NN=C2COc3cc(-c4ccccc4F)c([C@H]4CCN(C)C4)cc3N21 | –
11 | 103 mL/min/kg | 19 ×10⁻⁶ cm/s | 633 mL/min/kg | 67 ng/mL | 401 ng·h/mL | 5.1 h | 233 mL/min/kg | 25 mL/min/kg | 54% | C[C@@H]1C(=O)NN=C2COc3cc(-c4ccccc4F)c(C4CCN(C)CC4)cc3N21 | fAUC [11]: 56.3 ng·h/mL; inhibition in vivo at 10 mg/kg [21]: 52%
